Measured values published in patent US7439366B2, “Phenacylamine derivatives, process for their production and pesticides containing them” (Ishihara Sangyo Kaisha Ltd., priority 2000, dated 2008).

Tested on: southern root-knot nematode (Meloidgyne incognita)
Assay: Test on southern root-knot nematode (soil treatment, tomato seedling, root knot index)
Assay type: in vivo
Parameters: key: 0: No knot was formed; 1: Knots were formed to a slight degree; 2: Knots were formed to a moderate degree; 3: Knots were formed to a heavy degree; 4: Knots were formed to the heaviest degree
Details: 7 ml of 1600 ppm chemical solution mixed into 300 ml contaminated soil; tomato seedling in 2-leaf stage; three to four weeks after transplantation
Procedure: TEST EXAMPLE 1 Test on Southern Root-knot Nematode (Meloidgyne incognita) To 300 ml of the soil contaminated by southern root-knot nematode, 7 ml of a chemical solution having the concentration of the compound of the present invention adjusted to be 1600 ppm, was poured, followed by mixing so that the compound was uniformly dispersed. The treated soil was put into a pot (diameter: 9 cm, height: 8 cm), and then a tomato seedling in 2-leaf stage was transplanted and placed in a greenhouse. After three to four weeks from the transplantation of the tomato, the root knot index was determined based on the following standards. [table]

SMILES	root knot index
CCC(C)(NC(=O)c1ccccc1F)C(=O)c1ccc(Cl)cc1 (racemic) [1-51]	1
CCC(C)(NC(=O)c1c(F)cccc1F)C(=O)c1ccc(Cl)cc1 (racemic) [1-151]	1
CC(C)(NC(=O)c1ccccc1F)C(=O)c1ccccc1 [1-1]	1
CC(C)(NC(=O)c1c(F)cccc1F)C(=O)c1ccccc1 [1-4]	1
CC(C)(NC(=O)c1ccccc1Br)C(=O)c1ccccc1 [1-17]	1
Cc1ccccc1C(=O)NC(C)(C)C(=O)c1ccccc1 [1-18]	1
Cc1ccc(C(=O)NC(C)(C)C(=O)c2ccccc2)cc1 [1-19]	1
CC(C)(NC(=O)c1ccccc1C(F)(F)F)C(=O)c1ccccc1 [1-24]	1
CC(C)(NC(=O)c1ccc(C(F)(F)F)cc1)C(=O)c1ccccc1 [1-28]	1
CSc1ccccc1C(=O)NC(C)(C)C(=O)c1ccccc1 [1-31]	1
CC(C)(NC(=O)c1ccccc1[N+](=O)[O-])C(=O)c1ccccc1 [1-38]	1
CC(C)(NC(=O)c1ccccc1)C(=O)c1ccc(Cl)cc1 [1-49]	1
CC(C)(NC(=O)c1ccccc1F)C(=O)c1ccc(Cl)cc1 [1-50]	1
CC(C)(NC(=O)c1ccccc1Br)C(=O)c1ccc(Cl)cc1 [1-64]	1
Cc1ccccc1C(=O)NC(C)(C)C(=O)c1ccc(Cl)cc1 [1-65]	1
CC(C)(NC(=O)c1ccccc1C(F)(F)F)C(=O)c1ccc(Cl)cc1 [1-70]	1
CC(C)(NC(=O)c1ccccc1F)C(=O)c1ccc(Cl)c(Cl)c1 [1-77]	1
CCc1ccc(C(=O)C(C)(C)NC(=O)c2ccccc2Cl)cc1 [1-83]	1
COc1ccc(C(=O)C(C)(C)NC(=O)c2ccccc2Cl)cc1 [1-93]	1
CC(C)(NC(=O)c1ccccc1Cl)C(=O)c1ccc(OC(F)F)cc1 [1-95]	1
CC(C)(NC(=O)c1ccc(F)cc1F)C(=O)c1ccccc1 [1-125]	1
CC(C)(NC(=O)c1c(F)cccc1F)C(=O)c1cccc(F)c1 [1-126]	1
CC(C)(NC(=O)c1cccc(F)c1F)C(=O)c1ccc(F)cc1 [1-127]	1

SMILES	root knot index
CC(C)(NC(=O)c1c(F)cccc1F)C(=O)c1ccc(F)cc1 [1-128]	1
CC(C)(NC(=O)c1ccccc1F)C(=O)c1ccc(F)c(F)c1 [1-130]	1
CC(C)(NC(=O)c1ccccc1Cl)C(=O)c1ccc(F)c(F)c1 [1-131]	1
CC(C)(NC(=O)c1ccccc1C(F)(F)F)C(=O)c1ccc(F)c(F)c1 [1-132]	1
CC(C)(NC(=O)c1c(F)cccc1F)C(=O)c1ccc(F)c(F)c1 [1-133]	1
CC(C)(NC(=O)c1c(F)cccc1F)C(=O)c1ccccc1Cl [1-134]	1
CC(C)(NC(=O)c1c(F)cccc1F)C(=O)c1cccc(Cl)c1 [1-135]	1
CC(C)(NC(=O)c1ccccc1[N+](=O)[O-])C(=O)c1ccc(Cl)cc1 [1-136]	1
CC(C)(NC(=O)c1ccc(F)cc1Cl)C(=O)c1ccc(Cl)cc1 [1-138]	1
CC(C)(NC(=O)c1cccc(F)c1F)C(=O)c1ccc(Cl)cc1 [1-139]	1
CC(C)(NC(=O)c1ccc(F)cc1F)C(=O)c1ccc(Cl)cc1 [1-140]	1
CC(C)(NC(=O)c1cc(F)ccc1F)C(=O)c1ccc(Cl)cc1 [1-141]	1
CC(C)(NC(=O)c1c(F)cccc1Cl)C(=O)c1ccc(Cl)cc1 [1-142]	1
CC(C)(NC(=O)c1c(F)cccc1F)C(=O)c1ccc(Cl)cc1Cl [1-143]	1
CC(C)(NC(=O)c1c(F)cccc1F)C(=O)c1ccc(Cl)c(Cl)c1 [1-147]	1
CC(C)(NC(=O)c1ccccc1Cl)C(=O)c1ccc(Br)cc1 [1-155]	1
CC(C)(NC(=O)c1c(F)cccc1F)C(=O)c1ccc(Br)cc1 [1-157]	1
CC(C)(NC(=O)c1ccccc1F)C(=O)c1ccc(Br)cc1 [1-158]	1
CC(C)(NC(=O)c1cccc(F)c1F)C(=O)c1ccc(Br)cc1 [1-159]	1
CC(C)(NC(=O)c1ccccc1F)C(=O)c1ccc(I)cc1 [1-160]	1
CC(C)(NC(=O)c1ccccc1C(F)(F)F)C(=O)c1ccc(I)cc1 [1-161]	1
CC(C)(NC(=O)c1c(F)cccc1F)C(=O)c1ccc(I)cc1 [1-162]	1
Cc1ccc(C(=O)C(C)(C)NC(=O)c2c(F)cccc2F)cc1 [1-163]	1

SMILES	root knot index
CCc1ccc(C(=O)C(C)(C)NC(=O)c2c(F)cccc2F)cc1 [1-164]	1
CC(C)(NC(=O)c1c(F)cccc1F)C(=O)c1ccc(C(F)(F)F)cc1 [1-166]	1
CC(C)(NC(=O)c1ccccc1F)C(=O)c1ccc(C(F)(F)F)cc1 [1-167]	1
COc1ccc(C(=O)C(C)(C)NC(=O)c2c(F)cccc2F)cc1 [1-168]	1
CCOc1ccc(C(=O)C(C)(C)NC(=O)c2c(F)cccc2F)cc1 [1-169]	1
CC(C)(NC(=O)c1ccccc1F)C(=O)c1ccc(OC(F)F)cc1 [1-171]	1
CC(C)(NC(=O)c1c(F)cccc1F)C(=O)c1ccc(OC(F)F)cc1 [1-172]	1
CC(C)(NC(=O)c1ccccc1F)C(=O)c1ccc(OCC(F)(F)F)cc1 [1-173]	1
CC(C)(NC(=O)c1c(F)cccc1F)C(=O)c1ccc(OCC(F)(F)F)cc1 [1-174]	1
CC(C)(NC(=O)c1ccccc1F)C(=O)c1ccc(OC(F)(F)C(F)F)cc1 [1-175]	1
CC(C)(NC(=O)c1ccccc1Cl)C(=O)c1ccc(OC(F)(F)C(F)F)cc1 [1-176]	1
CC(C)(NC(=O)c1c(F)cccc1F)C(=O)c1ccc(OC(F)(F)C(F)F)cc1 [1-177]	1
CC(C)(NC(=O)c1ccccc1C(F)(F)F)C(=O)c1ccc(OC(F)(F)C(F)F)cc1 [1-178]	1
CC(C)(NC(=O)c1ccccc1F)C(=O)c1ccc(OCC(F)(F)C(F)(F)F)cc1 [1-179]	1
CC(C)(NC(=O)c1c(F)cccc1F)C(=O)c1ccc(OCC(F)(F)C(F)(F)F)cc1 [1-180]	1
CC(C)(NC(=O)c1c(F)cccc1F)C(=O)c1ccc(Oc2ccc(C(F)(F)F)cn2)cc1 [1-211]	1
CSc1ccc(C(=O)C(C)(C)NC(=O)c2c(F)cccc2F)cc1 [1-212]	1
CC(C)(NC(=O)c1c(F)cccc1F)C(=O)c1ccc(S(C)(=O)=O)cc1 [1-213]	1
CC(C)(NC(=O)c1cccnc1Cl)C(=O)c1ccccc1 [2-2]	1
CC(C)(NC(=O)c1ccccc1Cl)C(=O)c1ccccc1 [Compound No. 1-5]	1
CN(C(=O)c1ccccc1C(F)(F)F)C(C)(C)C(=O)c1ccccc1 [Compound No. 1-27, N-methyl-N-[(1,1-dimethyl)phenacyl]-2-trifluoromethylbenzamide]	1
CC(C)(NC(=O)c1ccccc1Cl)C(=O)c1ccc(Cl)cc1 [Compound No. 1-54, 2-chloro-N-[(4′-chloro-1,1-dimethyl)phenacyl]benzamide]	1
CCc1ccc(C(=O)C(C)(C)NC(=O)c2cc(Cl)cc(Cl)c2)cc1 [Compound No. 1-84, 3,5-dichloro-N-[(4′-ethyl-1,1-dimethyl)phenacyl]benzamide]	1
